# From US20210386367A1, “DEVICES AND SYSTEMS FOR GASTROINTESTINAL MICROBIOME DETECTION AND MANIPULATION” (Progenity, Inc., priority 2018, published 2021)
# Entries after “also recorded” stand apart in the source; their conditions may differ. Where two headings read alike, the source gives them in different places.
# Key:
# Veillonella spp. = assay: Agar dilution MIC, 30 clinical isolates; type: cell-based; conditions: for Mode: modal MIC
# Enterobacter aerogenes = assay: Broth microdilution MIC, 50 clinical isolates; type: cell-based; conditions: for MIC50 / MIC90: Klebsiella aerogenes; for MIC50: read-out: MIC50; for MIC90: read-out: MIC90
# Method in brief: (§1)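 Medium: cation-adjusted MHB, plus 3% lysed horse blood for streptococci, which were incubated with CO2 planchets. Final inoculum approx. 5×10^5 CFU/mL; serial two-fold drug dilutions per CLSI.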
# Pseudomonas aeruginosa = assay: Broth microdilution MIC, 50 clinical isolates; type: cell-based; conditions: for MIC50: read-out: MIC50
# Method in brief: as §1
# Proteus mirabilis = assay: Broth microdilution MIC, 50 clinical isolates; type: cell-based; conditions: for MIC50 / MIC90: Proteus mirabilis; for MIC50: read-out: MIC50; for MIC90: read-out: MIC90
# Method in brief: as §1
# [1] = system: Bacteroides spp. (B. fragilis ATCC 25285, B. vulgatus, B. ovatus MMX 3503); assay: Agar dilution MIC (spontaneous mutation study; strain in conditions); type: cell-based
# [2] = system: Streptococcus spp. (S. pneumoniae ATCC 49619, S. pyogenes ATCC 49399, S. agalactiae ATCC 13813); assay: as above; type: cell-based
# SIBO Bacteria = conditions: cited from earlier work
# S. pneumoniae ATCC 49619 = conditions: cited from earlier work
# [3] = 30 Veillonella spp. clinical isolates
# [4] = Pseudomonas aeruginosa, read-out: MIC90
# [5] = Bacteroides fragilis, ATCC25285, read-out: Agar MIC
# [6] = Bacteroides ovatus, ATCC25285, read-out: Agar MIC
# [7] = Phocaeicola vulgatus, ATCC 25285 / ATCC 8482, read-out: Agar MIC
# [8] = over evaluated Bacteroides spp., read-out: MIC values (agar dilution)
# [9] = Streptococcus agalactiae, S. agalactiae ATCC 13813, read-out: Agar MIC
# [10] = Streptococcus pneumoniae, S. pneumoniae ATCC 49619, read-out: Agar MIC
# [11] = Streptococcus pyogenes, S. pyogenes ATCC 49399, read-out: Agar MIC
# [12] = over evaluated Streptococcus spp. (range stated jointly with other groups), read-out: MIC values (agar dilution)
structure (smiles),measurement,setting,value
C[C@@H](O)[C@H]1C(=O)N2C(C(=O)O)=C(S[C@@H]3CN[C@H](C(=O)N(C)C)C3)[C@H](C)[C@H]12 [meropenem],isolates with intermediate resistance,Veillonella spp.,Twenty-three
same,relative activity among drugs tested,Veillonella spp.,most active drug evaluated; also recorded: most active agent
same,% I,Veillonella spp.; [3],23%
same,% S,Veillonella spp.; [3],77%
same,MIC50,Veillonella spp.; [3],1 µg/mL
same,MIC90,Veillonella spp.; [3],8 µg/mL
same,MIC range,Veillonella spp.; [3],0.12 to 8 µg/mL
same,MIC50,"Veillonella spp.; Veillonella, read-out: MIC50",1 µg/mL
same,MIC90,"Veillonella spp.; Veillonella, read-out: MIC90",8 µg/mL
same,Mode,Veillonella spp.; [3],0.12 µg/mL
same,% I,Enterobacter aerogenes,2%
same,% S,Enterobacter aerogenes,Ninety-eight
same,MIC range,Enterobacter aerogenes,0.015 to 2 µg/mL
same,Mode,Enterobacter aerogenes,0.03 µg/mL
same,relative activity among drugs tested,Enterobacter aerogenes,most active drug evaluated; also recorded: most active agent
same,Cumulative percentage of isolates inhibited at MIC,Enterobacter aerogenes; 0.015 μg/mL,36.0%
same,Number of test isolates at MIC,Enterobacter aerogenes; 0.015 μg/mL,18
same,Cumulative percentage of isolates inhibited at MIC,Enterobacter aerogenes; 0.03 μg/mL,80.0%
same,Number of test isolates at MIC,Enterobacter aerogenes; 0.03 μg/mL,22
same,Cumulative percentage of isolates inhibited at MIC,Enterobacter aerogenes; 0.06 μg/mL,94.0%
same,Number of test isolates at MIC,Enterobacter aerogenes; 0.06 μg/mL,7
same,Cumulative percentage of isolates inhibited at MIC,Enterobacter aerogenes; 1 μg/mL,98.0%
same,Number of test isolates at MIC,Enterobacter aerogenes; 1 μg/mL,1
same,Cumulative percentage of isolates inhibited at MIC,Enterobacter aerogenes; 2 μg/mL,100.0%
same,Number of test isolates at MIC,Enterobacter aerogenes; 2 μg/mL,1
same,MIC50,Enterobacter aerogenes,0.03 µg/mL
same,MIC90,Enterobacter aerogenes,0.06 µg/mL
same,Cumulative percentage of isolates inhibited at MIC,Enterobacter aerogenes; […],96.0%
same,Number of test isolates at MIC,Enterobacter aerogenes; […],1
same,% I,Enterobacter aerogenes; listed as MEM,2%
same,% S,Enterobacter aerogenes; listed as MEM,98%
same,% I,Pseudomonas aeruginosa,10%
same,% R,Pseudomonas aeruginosa,Eighteen
same,% S,Pseudomonas aeruginosa,72%
same,Mode,Pseudomonas aeruginosa,0.25 µg/mL
same,relative activity among drugs tested,Pseudomonas aeruginosa,most active drug evaluated; also recorded: most active agent
same,Cumulative percentage of isolates inhibited at MIC,Pseudomonas aeruginosa; 0.03 μg/mL,2.0%
same,Number of test isolates at MIC,Pseudomonas aeruginosa; 0.03 μg/mL,1
same,Cumulative percentage of isolates inhibited at MIC,Pseudomonas aeruginosa; 0.06 μg/mL,6.0%
same,Number of test isolates at MIC,Pseudomonas aeruginosa; 0.06 μg/mL,2
same,Cumulative percentage of isolates inhibited at MIC,Pseudomonas aeruginosa; 0.5 μg/mL,56.0%
same,Number of test isolates at MIC,Pseudomonas aeruginosa; 0.5 μg/mL,5
same,Cumulative percentage of isolates inhibited at MIC,Pseudomonas aeruginosa; 1 μg/mL,66.0%
same,Number of test isolates at MIC,Pseudomonas aeruginosa; 1 μg/mL,5
same,Cumulative percentage of isolates inhibited at MIC,Pseudomonas aeruginosa; 2 μg/mL,72.0%
same,Number of test isolates at MIC,Pseudomonas aeruginosa; 2 μg/mL,3
same,Cumulative percentage of isolates inhibited at MIC,Pseudomonas aeruginosa; 4 μg/mL,84.0%
same,Number of test isolates at MIC,Pseudomonas aeruginosa; 4 μg/mL,6
same,Cumulative percentage of isolates inhibited at MIC,Pseudomonas aeruginosa; 8 μg/mL,92.0%
same,Number of test isolates at MIC,Pseudomonas aeruginosa; 8 μg/mL,4
same,Cumulative percentage of isolates inhibited at MIC,Pseudomonas aeruginosa; >8 μg/mL,100.0%
same,Number of test isolates at MIC,Pseudomonas aeruginosa; >8 μg/mL,4
same,MIC50,Pseudomonas aeruginosa; Pseudomonas aeruginosa,0.5 µg/mL
same,MIC90,Pseudomonas aeruginosa; [4],8 µg/mL
same,% I,Pseudomonas aeruginosa; listed as MEM,10%
same,% R,Pseudomonas aeruginosa; listed as MEM,18%
same,% S,Proteus mirabilis,98%
same,MIC range,Proteus mirabilis,≤0.008 to 2 µg/mL
same,Mode,Proteus mirabilis,0.06 µg/mL
same,Cumulative percentage of isolates inhibited at MIC,Proteus mirabilis; 0.03 μg/mL,38.0%
same,Number of test isolates at MIC,Proteus mirabilis; 0.03 μg/mL,18
same,Cumulative percentage of isolates inhibited at MIC,Proteus mirabilis; 0.06 μg/mL,82.0%
same,Number of test isolates at MIC,Proteus mirabilis; 0.06 μg/mL,2
same,Cumulative percentage of isolates inhibited at MIC,Proteus mirabilis; 2 μg/mL,100.0%
same,Number of test isolates at MIC,Proteus mirabilis; 2 μg/mL,1
same,MIC50,Proteus mirabilis,0.06 µg/mL
same,MIC90,Proteus mirabilis,0.12 µg/mL
same,% I,Proteus mirabilis; listed as MEM,2% ^
same,Cumulative percentage of isolates inhibited at MIC,Proteus mirabilis; ≤0.008 μg/mL,2.0%
same,Number of test isolates at MIC,Proteus mirabilis; ≤0.008 μg/mL,1
same,MIC,[1]; [5],0.12 µg/mL
same,MIC,[1]; [6],0.12 µg/mL
same,MIC,[1]; [7],0.12 µg/mL
same,MIC,[1]; [8],0.008 to 0.12 µg/mL
same,MIC,[2]; [9],0.03 µg/mL
same,MIC,[2]; [10],0.06 µg/mL
same,MIC,[2]; [11],0.008 µg/mL
same,MIC,[2]; [12],0.008 to 0.12 µg/mL
same,activity against SIBO organisms,SIBO Bacteria,active against SIBO organisms
same,CLSI QC range (MIC),S. pneumoniae ATCC 49619,(0.03-0.25)^1 μg/mL
CO/N=C(\C(=O)N[C@@H]1C(=O)N2C(C(=O)O)=C(CSc3nc(=O)c(=O)[nH]n3C)CS[C@H]12)c1csc(N)n1 [ceftriaxone],isolates resistant,Veillonella spp.,3%
same,isolates with intermediate resistance,Veillonella spp.,10%
same,% I,Veillonella spp.; [3],10%
same,% R,Veillonella spp.; [3],3%
same,% S,Veillonella spp.; [3],87%
same,MIC50,Veillonella spp.; [3],16 µg/mL
same,MIC90,Veillonella spp.; [3],32 µg/mL
same,MIC50,"Veillonella spp.; Veillonella, read-out: MIC50",16 µg/mL
same,MIC90,"Veillonella spp.; Veillonella, read-out: MIC90",32 µg/mL
same,Mode,Veillonella spp.; [3],16 µg/mL
same,% R,Enterobacter aerogenes,26%
same,% S,Enterobacter aerogenes,74%
same,MIC range,Enterobacter aerogenes,0.03 to 64 µg/mL
same,Mode,Enterobacter aerogenes,0.06 µg/mL
same,Cumulative percentage of isolates inhibited at MIC,Enterobacter aerogenes; 0.03 μg/mL,6.0%
same,Number of test isolates at MIC,Enterobacter aerogenes; 0.03 μg/mL,3
same,Cumulative percentage of isolates inhibited at MIC,Enterobacter aerogenes; 0.06 μg/mL,42.0%
same,Number of test isolates at MIC,Enterobacter aerogenes; 0.06 μg/mL,18
same,Cumulative percentage of isolates inhibited at MIC,Enterobacter aerogenes; 1 μg/mL,74.0%
same,Number of test isolates at MIC,Enterobacter aerogenes; 1 μg/mL,2
same,Cumulative percentage of isolates inhibited at MIC,Enterobacter aerogenes; 8 μg/mL,78.0%
same,Number of test isolates at MIC,Enterobacter aerogenes; 8 μg/mL,2
same,Cumulative percentage of isolates inhibited at MIC,Enterobacter aerogenes; 16 μg/mL,86.0%
same,Number of test isolates at MIC,Enterobacter aerogenes; 16 μg/mL,4
same,Cumulative percentage of isolates inhibited at MIC,Enterobacter aerogenes; 32 μg/mL,94.0%
same,Number of test isolates at MIC,Enterobacter aerogenes; 32 μg/mL,4
same,Cumulative percentage of isolates inhibited at MIC,Enterobacter aerogenes; 64 μg/mL,100.0%
same,Number of test isolates at MIC,Enterobacter aerogenes; 64 μg/mL,3
same,MIC50,Enterobacter aerogenes,0.12 µg/mL
same,MIC90,Enterobacter aerogenes,32 µg/mL
same,% R,Enterobacter aerogenes; listed as CTR,26%
same,Cumulative percentage of isolates inhibited at MIC,Pseudomonas aeruginosa; 4 μg/mL,2.0%
same,Number of test isolates at MIC,Pseudomonas aeruginosa; 4 μg/mL,1
same,Cumulative percentage of isolates inhibited at MIC,Pseudomonas aeruginosa; 8 μg/mL,10.0%
same,Number of test isolates at MIC,Pseudomonas aeruginosa; 8 μg/mL,4
same,Cumulative percentage of isolates inhibited at MIC,Pseudomonas aeruginosa; 16 μg/mL,16.0%
same,Number of test isolates at MIC,Pseudomonas aeruginosa; 16 μg/mL,3
same,Cumulative percentage of isolates inhibited at MIC,Pseudomonas aeruginosa; 32 μg/mL,36.0%
same,Number of test isolates at MIC,Pseudomonas aeruginosa; 32 μg/mL,10
same,Cumulative percentage of isolates inhibited at MIC,Pseudomonas aeruginosa; 64 μg/mL,58.0%
same,Number of test isolates at MIC,Pseudomonas aeruginosa; 64 μg/mL,11
same,Cumulative percentage of isolates inhibited at MIC,Pseudomonas aeruginosa; 128 μg/mL,72.0%
same,Number of test isolates at MIC,Pseudomonas aeruginosa; 128 μg/mL,7
same,Cumulative percentage of isolates inhibited at MIC,Pseudomonas aeruginosa; >128 μg/mL,100.0%
same,Number of test isolates at MIC,Pseudomonas aeruginosa; >128 μg/mL,14
same,MIC50,Pseudomonas aeruginosa; Pseudomonas aeruginosa,64 µg/mL
same,MIC90,Pseudomonas aeruginosa; [4],> 128 µg/mL
same,MIC90,Pseudomonas aeruginosa; listed as CTR,>128 µg/mL
same,% R,Proteus mirabilis,Six
same,% S,Proteus mirabilis,94%
same,Mode,Proteus mirabilis,0.004 µg/mL
same,Cumulative percentage of isolates inhibited at MIC,Proteus mirabilis; 0.004 μg/mL,62.0%
same,Number of test isolates at MIC,Proteus mirabilis; 0.004 μg/mL,21
same,Cumulative percentage of isolates inhibited at MIC,Proteus mirabilis; 0.008 μg/mL,84.0%
same,Number of test isolates at MIC,Proteus mirabilis; 0.008 μg/mL,11
same,Cumulative percentage of isolates inhibited at MIC,Proteus mirabilis; 0.015 μg/mL,86.0%
same,Number of test isolates at MIC,Proteus mirabilis; 0.015 μg/mL,1
same,Cumulative percentage of isolates inhibited at MIC,Proteus mirabilis; 0.03 μg/mL,88.0%
same,Number of test isolates at MIC,Proteus mirabilis; 0.03 μg/mL,1
same,Cumulative percentage of isolates inhibited at MIC,Proteus mirabilis; 0.06 μg/mL,92.0%
same,Number of test isolates at MIC,Proteus mirabilis; 0.06 μg/mL,2
same,Cumulative percentage of isolates inhibited at MIC,Proteus mirabilis; 1 μg/mL,94.0%
same,Number of test isolates at MIC,Proteus mirabilis; 1 μg/mL,1
same,Cumulative percentage of isolates inhibited at MIC,Proteus mirabilis; 4 μg/mL,96.0%
same,Number of test isolates at MIC,Proteus mirabilis; 4 μg/mL,1
same,Cumulative percentage of isolates inhibited at MIC,Proteus mirabilis; 8 μg/mL,98.0%
same,Number of test isolates at MIC,Proteus mirabilis; 8 μg/mL,1
same,Cumulative percentage of isolates inhibited at MIC,Proteus mirabilis; >128 μg/mL,100.0%
same,Number of test isolates at MIC,Proteus mirabilis; >128 μg/mL,1
same,MIC50,Proteus mirabilis,0.004 µg/mL
same,MIC90,Proteus mirabilis,0.06 µg/mL
same,% R,Proteus mirabilis; listed as CTR,6%^
same,Cumulative percentage of isolates inhibited at MIC,Proteus mirabilis; ≤0.002 μg/mL,20.0%
same,Number of test isolates at MIC,Proteus mirabilis; ≤0.002 μg/mL,10
same,MIC,"[1]; B. fragilis and B. ovatus isolates, read-out: initial MIC values (agar dilution)",128 µg/mL
same,MIC,[1]; [5],128 µg/mL
same,MIC,[1]; [6],128 µg/mL
same,MIC,[1]; [7],4 µg/mL
same,MIC,[1]; [8],4 to 128 µg/mL
same,MIC,[2]; [9],0.06 µg/mL
same,MIC,[2]; [10],0.06 µg/mL
same,MIC,[2]; [11],0.03 µg/mL
same,MIC,[2]; [12],0.03 to 0.06 µg/mL
same,activity against SIBO organisms,SIBO Bacteria,active against SIBO organisms
same,CLSI QC range (MIC),S. pneumoniae ATCC 49619,(0.03-0.12) μg/mL
